The NIST ThermoML archive (doi:10.1016/j.fluid.2004.09.013)

Details: for mass density: Fluid (supercritical or subcritical phases), Vibrating tube method; for vapor or sublimation pressure: Liquid

C=C(C)C [2-methylpropene]
Details	mass density [kg/m3]
388.24 K, 14986 kPa	509.22
388.24 K, 19997 kPa	523.66
388.24 K, 25009 kPa	535.55
388.24 K, 29994 kPa	545.71
388.24 K, 35003 kPa	554.67
393.24 K, 3122 kPa	430.77
393.24 K, 4982 kPa	451.26
393.24 K, 9992 kPa	482.81
393.24 K, 14983 kPa	502.79
393.24 K, 20002 kPa	518.03
393.24 K, 25003 kPa	530.42
393.24 K, 29986 kPa	540.94
393.24 K, 34999 kPa	550.22
398.24 K, 3358 kPa	417.5
398.24 K, 4991 kPa	439.31
398.24 K, 10000 kPa	474.88
398.24 K, 15001 kPa	496.33
398.24 K, 19996 kPa	512.31
398.24 K, 24996 kPa	525.25
398.24 K, 30012 kPa	536.21
398.24 K, 35008 kPa	545.78
403.24 K, 3596 kPa	402.69
403.24 K, 4988 kPa	426.04
403.24 K, 14999 kPa	489.7
403.24 K, 19992 kPa	506.53
403.24 K, 24997 kPa	520.05
403.24 K, 30004 kPa	531.43
403.24 K, 34985 kPa	541.26
403.25 K, 9993 kPa	466.62
408.24 K, 3850 kPa	386.28
408.24 K, 4991 kPa	411.13
408.24 K, 14992 kPa	482.94
408.24 K, 19999 kPa	500.74
408.24 K, 24999 kPa	514.84
408.24 K, 30000 kPa	526.63
408.25 K, 9982 kPa	458.05
408.25 K, 34995 kPa	536.8
413.24 K, 4118 kPa	367.6
413.24 K, 30005 kPa	521.83
413.24 K, 35003 kPa	532.34
413.25 K, 4983 kPa	393.59
413.25 K, 9996 kPa	449.33
413.25 K, 14993 kPa	476.09
413.25 K, 19996 kPa	494.87
413.25 K, 24999 kPa	509.59
418.24 K, 4397 kPa	346.27
418.24 K, 4989 kPa	372.46
418.24 K, 14988 kPa	469.1
418.24 K, 19991 kPa	488.93
418.24 K, 24993 kPa	504.3
418.25 K, 9999 kPa	440.27
418.25 K, 30007 kPa	517.01
418.25 K, 34986 kPa	527.81
423.24 K, 5018 kPa	345.72
423.24 K, 19992 kPa	482.96
423.24 K, 30010 kPa	512.18
423.25 K, 9984 kPa	430.4
423.25 K, 14989 kPa	462
423.25 K, 25000 kPa	499.02
423.25 K, 34992 kPa	523.34
423.25 K, 39996 kPa	533.35
428.24 K, 5018 kPa	303.01
428.24 K, 24987 kPa	493.65
428.24 K, 34996 kPa	518.85
428.25 K, 9990 kPa	420.58
428.25 K, 14983 kPa	454.76
428.25 K, 19986 kPa	476.9
428.25 K, 30000 kPa	507.31
433.24 K, 5019 kPa	233.56
433.25 K, 9991 kPa	410.25
433.25 K, 14996 kPa	447.46
433.25 K, 19984 kPa	470.79
433.25 K, 24991 kPa	488.3
433.25 K, 30001 kPa	502.44
433.25 K, 34994 kPa	514.34
438.25 K, 5019 kPa	183.56
438.25 K, 9997 kPa	399.54
438.25 K, 14998 kPa	440.02
438.25 K, 19984 kPa	464.66
438.25 K, 24988 kPa	482.93
438.25 K, 30000 kPa	497.59
438.25 K, 34992 kPa	509.86
443.25 K, 5019 kPa	159.03
443.25 K, 9994 kPa	388.26
443.25 K, 14989 kPa	432.39
443.25 K, 20002 kPa	458.54
443.25 K, 24984 kPa	477.51
443.25 K, 29996 kPa	492.7
443.25 K, 34994 kPa	505.36
448.25 K, 5018 kPa	144.08
448.25 K, 9996 kPa	376.53
448.25 K, 14997 kPa	424.77
448.25 K, 19999 kPa	452.29
448.25 K, 24998 kPa	472.14
448.25 K, 29994 kPa	487.82
448.25 K, 35009 kPa	500.91
453.25 K, 5016 kPa	133.47
453.25 K, 9986 kPa	364.19
453.25 K, 14989 kPa	416.85
453.25 K, 19999 kPa	446.01
453.25 K, 25000 kPa	466.69
453.25 K, 29993 kPa	482.93
453.25 K, 35004 kPa	496.39

Details	vapor or sublimation pressure [kPa]
393.36 K	2656.5
399.86 K	2967.1
412.88 K	3665.8
